# Patent US4898940A (priority 1989, dated 1990)
# Columns and labels:
# [1] = test system: pathogenic fungi such as Candida albicans, Cryptococcus neoformans, Aspergillus fumigatus, Trichlophyton mentagrophytes and Mucor spinosus; assay: In vitro antifungal activity; type: cell-based; conditions: clinically important pathogenic fungi
# Text: (§1) Nutrient agar (Eiken) was used for bacteria and Sabouraud dextrose agar (Difco) for fungi. The inoculum size was adjusted to 10^4 CFU/ml for bacteria and 10^5 -10^7 CFU/ml for fungi.
# [2] = test system: Klebsiella pneumoniae; assay: MIC, serial agar dilution (nutrient agar); type: cell-based; conditions: Klebsiella pneumoniae D-11
# Text: as §1
# [3] = test system: Proteus mirabilis; assay: MIC, serial agar dilution (nutrient agar); type: cell-based; conditions: Proteus mirabilis A9554
# Text: as §1
# [4] = test system: Bacillus subtilis; assay: MIC, serial agar dilution (nutrient agar); type: cell-based; conditions: Bacillus subtilis PCI-219
# Text: as §1
# [5] = test system: Staphylococcus aureus; assay: MIC, serial agar dilution (nutrient agar); type: cell-based
# Text: as §1
# [6] = test system: Serratia marcescens; assay: MIC, serial agar dilution (nutrient agar); type: cell-based; conditions: Serratia marcescens A20222
# Text: as §1
# [7] = test system: Enterobacter cloacae; assay: MIC, serial agar dilution (nutrient agar); type: cell-based; conditions: Enterobacter cloacae A9659
# Text: as §1
# [8] = test system: Morganella morganii; assay: MIC, serial agar dilution (nutrient agar); type: cell-based; conditions: Morganella morganii A9553
# Text: as §1
# [9] = test system: Micrococcus luteus; assay: MIC, serial agar dilution (nutrient agar); type: cell-based; conditions: Micrococcus luteus PCI-1001
# Text: as §1
# [10] = test system: Staphylococcus epidermidis; assay: MIC, serial agar dilution (nutrient agar); type: cell-based
# Text: as §1
# [11] = test system: Escherichia coli; assay: MIC, serial agar dilution (nutrient agar); type: cell-based; conditions: Escherichia coli NIHJ
# Text: as §1
# [12] = test system: Proteus vulgaris; assay: MIC, serial agar dilution (nutrient agar); type: cell-based; conditions: Proteus vulgaris A9436
# Text: as §1
# [13] = test system: Pseudomonas aeruginosa; assay: MIC, serial agar dilution (nutrient agar); type: cell-based; conditions: Pseudomonas aeruginosa A9930
# Text: as §1
# [14] = test system: Streptococcus faecalis; assay: MIC, serial agar dilution (nutrient agar); type: cell-based; conditions: Streptococcus faecalis A9612
# Text: as §1
# [15] = test system: Piricularia oryzae; type: cell-based; conditions: Piricularia oryzae D 91; Sabouraud dextrose agar
# [16] = test system: Petriellidium boydii; assay: MIC, serial agar dilution (Sabouraud dextrose agar); type: cell-based; conditions: Petriellidium boydii IFO 8073
# Text: as §1
# [17] = test system: Candida albicans; assay: as above; type: cell-based
# Text: as §1
# [18] = test system: Mucor spinosus; assay: as above; type: cell-based; conditions: Mucor spinosus IFO 5317
# Text: as §1
# [19] = test system: Trichophyton mentagrophytes; assay: as above; type: cell-based
# Text: as §1
# [20] = test system: Blastomyces dermaditis; assay: as above; type: cell-based; conditions: Blastomyces dermaditis IFO 8144
# Text: as §1
# [21] = test system: Sporothrix schenckii; assay: as above; type: cell-based; conditions: Sporothrix schenckii IFO 8158
# Text: as §1
# [22] = test system: Fusarium moniliforme; assay: as above; type: cell-based; conditions: Fusarium moniliforme A 2284
# Text: as §1
# [23] = test system: Cryptococcus neoformans; assay: as above; type: cell-based
# Text: as §1
# [24] = test system: Aspergillus fumigatus; assay: as above; type: cell-based
# Text: as §1
# [25] = test system: Aspergillus flavus; assay: as above; type: cell-based; conditions: Aspergillus flavus FA 21436
# Text: as §1
# [26] = test system: Melanotic melanoma B16; assay: Antitumor activity against B16 melanoma in mice; type: in vivo, BDF1 mice; conditions: for T/C % of MST: B16 melanoma, BDF1 mice
# Description: (§2) Lymphocytic leukemia P388 (CDF1 and BDF1 mice) and lymphoid leukemia L1210 (BDF1 mice) were inoculated by intraperitoneal injection of 0.8 ml diluted ascitic fluid containing 10^6 and 10^5 cells per mouse, respectively. Melanotic melanoma B16 (BDF1 mice) were implanted 0.5 ml of a 10% tumor brei intraperitoneally. Test materials were dissolved in 0.9% saline containing 10% dimethyl sulfoxide and graded doses of them were administered to mice intraperitoneally 24 hours after tumor implantation. Either olivomycin (NSC 38270) or mitomycin C was comparatively tested as a reference compound in the experiments.
# [27] = test system: gram-positive and gram-negative bacteria; assay: In vitro antibacterial activity; type: cell-based; conditions: at 50 mcg/ml
# Text: as §1
# [28] = test system: Lymphocytic leukemia P388; assay: Antitumor activity against P388 leukemia in mice; type: in vivo, CDF1 and BDF1 mice; conditions: for T/C % of MST: P388 leukemia; for antitumor activity against P388 leukemia (in words): ip
# Description: as §2
# Values for percentage ratios of 125 and above indicate significant antitumor effect.
# [29] = Acute toxicity, single intraperitoneal administration; conditions: male ddY mice
# [30] = test system: lymphoid leukemia L1210; assay: Antitumor activity against L1210 leukemia in mice; type: in vivo, BDF1 mice; conditions: for T/C % of MST: L1210 leukemia, BDF1 mice
# Description: as §2
# [31] = Solubility in solvents; type: physicochemical
smiles,measurement,setting,value
CCCCCCC/C=C/C=C/C(=O)N[C@H](C(=O)N[C@H]1C[C@@H](O)CCNC(=O)/C=C/[C@H](C)NC1=O)[C@@H](C)O [BU-2867T A],antifungal activity (in words),[1],somewhat less active than component C
same,MIC,[2],> 50 µg/mL
same,MIC,[3],> 50 µg/mL
same,MIC,[4],> 50 µg/mL
same,MIC,[5]; Staphyloccus aureus Bx-1633,> 50 µg/mL
same,MIC,[5]; Staphylococcus aureus 209P,> 50 µg/mL
same,MIC,[5]; Staphylococcus aureus Smith,> 50 µg/mL
same,MIC,[6],> 50 µg/mL
same,MIC,[7],> 50 µg/mL
same,MIC,[8],> 50 µg/mL
same,MIC,[9],> 50 µg/mL
same,MIC,[10]; Staphylococcus epidermidis A22152,> 50 µg/mL
same,MIC,[10]; Staphylococcus epidermidis D153,> 50 µg/mL
same,MIC,[11],> 50 µg/mL
same,MIC,[12],> 50 µg/mL
same,MIC,[13],> 50 µg/mL
same,MIC,[14],> 50 µg/mL
same,MIC,[15],> 50 µg/mL
same,MIC,[16],> 50 µg/mL
same,MIC,[17]; Candida albicans A 9540,1.6 µg/mL
same,MIC,[17]; Candida albicans IAM 4888,3.1 µg/mL
same,MIC,[18],1.6 µg/mL
same,MIC,[19]; Trichophyton mentagrophytes #4329,25 µg/mL
same,MIC,[19]; Trichophyton mentagrophytes D 155,25 µg/mL
same,MIC,[20],50 µg/mL
same,MIC,[21],> 50 µg/mL
same,MIC,[22],> 50 µg/mL
same,MIC,[23]; Cryptococcus neoformans D 49,25 µg/mL
same,MIC,[23]; Cryptococcus neoformans IAM 4514,25 µg/mL
same,MIC,[24]; Aspergillus fumigatus IAM 2034,1.6 µg/mL
same,MIC,[24]; Aspergillus fumigatus IAM 2530,1.6 µg/mL
same,MIC,[25],25 µg/mL
same,T/C % of MST,[26]; 0.25 mg/kg/day ip,113%
same,T/C % of MST,[26]; 0.5 mg/kg/day ip,116%
same,T/C % of MST,[26]; 1 mg/kg/day ip,125%
same,T/C % of MST,[26]; 2 mg/kg/day ip,Tox.
same,antitumor activity against B16 melanoma (in words),[26]; compared with P388,less active
same,growth inhibition of gram-positive and gram-negative bacteria (in words),[27],did not inhibit the growth
same,T/C % of MST,"[28]; 0.031 mg/kg/day ip, schedule 2 (once daily on days 1 through 9)",109%
same,T/C % of MST,"[28]; 0.063 mg/kg/day ip, schedule 2 (once daily on days 1 through 9)",136%
same,T/C % of MST,"[28]; 0.1 mg/kg/day ip, schedule 1 (once daily on days 1, 4 and 7)",120%
same,T/C % of MST,"[28]; 0.13 mg/kg/day ip, schedule 2 (once daily on days 1 through 9)",147%
same,T/C % of MST,"[28]; 0.25 mg/kg/day ip, schedule 2 (once daily on days 1 through 9)",156%
same,T/C % of MST,"[28]; 0.3 mg/kg/day ip, schedule 1 (once daily on days 1, 4 and 7)",130%
same,T/C % of MST,"[28]; 0.5 mg/kg/day ip, schedule 2 (once daily on days 1 through 9)",186%
same,T/C % of MST,"[28]; 1 mg/kg/day ip, schedule 1 (once daily on days 1, 4 and 7)",140%
same,T/C % of MST,"[28]; 1 mg/kg/day ip, schedule 2 (once daily on days 1 through 9)",228%
same,T/C % of MST,"[28]; 2 mg/kg/day ip, schedule 2 (once daily on days 1 through 9)",67%
same,antitumor activity against P388 leukemia (in words),"[28]; treatment schedule 1 (once daily on days 1, 4 and 7)",showed antitumor activity
same,antitumor activity against P388 leukemia (in words),[28]; treatment schedule 2 (once daily on days 1 through 9),highly active
same,LD50,[29],8.1 mg/kg
same,T/C % of MST,[30]; 0.063 mg/kg/day ip,106%
same,T/C % of MST,[30]; 0.13 mg/kg/day ip,118%
same,T/C % of MST,[30]; 0.25 mg/kg/day ip,118%
same,T/C % of MST,[30]; 0.5 mg/kg/day ip,129%
same,antitumor activity against L1210 leukemia (in words),[30]; compared with P388,less active
same,"solubility in chloroform, acetonitrile and ethyl acetate",[31],slightly soluble
same,"solubility in methanol, ethanol, n-butanol and dimethyl sulfoxide",[31],readily soluble
same,solubility in n-hexane and water,[31],practically insoluble
